# Literature values, collected in US7977378B1, “Compositions and methods for enhancing weight-loss by cyclical administration of compounds” (priority 2007, dated 2011).
# How the values were obtained:
# [1] = system: endothelium-intact rat aorta; settings: equal potency
# adipocyte = settings: in vitro
# [2] = system: contractile responses evoked by phenylephrine and high K+; settings: 4 approximately 12 microg/mL
# [3] = system: guinea-pig isolated right atria
# [4] = system: hepatic glucose-6-phosphatase
# hepatic TG = settings: 60 mg/kg·day
# [5] = up to 200 mg kg-1
# [6] = system: contractile effect of noradrenaline; settings: 2×10(−6) and 1×10(−7) M
compound,measurement,setting,value
C[n+]1c2n(c(=O)c3ccccc31)CCc1c-2[nH]c2ccccc12 [dehydroevodiamine],Vasodilatory effect,[1],vasodilatory effect
TNF-alpha,Adipocyte apoptosis,adipocyte,induced
(−)-epigallocatechin gallate [EGCG],Adipocyte apoptosis,adipocyte,induced
same,Effect on contractile responses evoked by phenylephrine and high K+,[2],did not affect
C=CCSSC=CC[S+]([O-])CC=C (mixture of isomers) [ajoene],Adipocyte apoptosis,adipocyte,induced
O=C(O)/C=C/c1ccccc1O [o-coumaric acid],Effect on cell cycle,3T3-L1 preadipocytes,cell cycle arrest in the G1 phase
evodiamine,Catecholamine secretion,bovine adrenal medulla,stimulate
same,Insensitivity of the cells to acetylcholine or high K+ stimulation,bovine adrenal medulla,reversed insensitivity
same,Inotropic and chronotropic effects,[3],positive inotropic and chronotropic effects
same,Vasodilatory effect,[1],vasodilatory effect
O=C(/C=C/c1ccc(O)c(O)c1)O[C@@H]1C[C@](O)(C(=O)O)C[C@@H](O)[C@H]1O [chlorogenic acid],Inhibition of hepatic glucose-6-phosphatase,[4],selectively inhibit
same,Level of hepatic TG,hepatic TG,significantly reduced
same,Effect on cell cycle,3T3-L1 preadipocytes,cell cycle arrest in the G1 phase
Cn1c(=O)c2c(ncn2C)n(C)c1=O [caffeine],Increase of energy expenditure,after ingestion,13%
same,Increase of oxidative FFA disposal,after ingestion,44%
same,Share of lipids oxidized,after ingestion,24%
same,Share of lipids recycled,after ingestion,76%
same,Oxidative FFA disposal,after ingestion (from 236+/−21),340+/−16 micro mol/min
same,Non-oxidative FFA disposal,after ingestion (from 455+/−66),1054+/−242 micro mol/min
same,Increase of non-oxidative FFA disposal,"after ingestion, P<0.01",2.3 fold
same,Increase of lipid turnover,"steady state (last hour of the test) after ingestion, P<0.005",2 fold
COc1ccc([C@@H]2CC(=O)c3c(O)cc(O)cc3O2)cc1O [hesperitin],Effect on intestinal transit,[5],no effect
catechin,Effect on intestinal transit,[5],no effect
O=C(O)/C=C/c1cccc(O)c1 [m-coumaric acid],Effect on cell cycle,3T3-L1 preadipocytes,cell cycle arrest in the G1 phase
O=C1C[C@@H](c2ccc(O)cc2)Oc2cc(O)cc(O)c21 [naringenin],Contractile effect of noradrenaline,[6],increased
